The text below walks through data of US10808007B2, “Desacetoxytubulysin H and analogs thereof” (WILLIAM MARSH RICE UNIVERSITY, priority 2015, dated 2020).

Each structure is given as a SMILES string. Read-outs that look alike come from different tables or passages of the source.

As a reminder, the IC50 is the concentration that gives 50% inhibition.

Holding throughout (format): cell-based
Test [1] deals with HEK 293T (human embryonic kidney cells). The experiment in a line: Cytotoxic assay (CellTiter-Glo, 72 h), HEK 293T. The settings on record: Homo sapiens, HEK-293T, read-out: IC50 HEK 293T.
The subject of test [2] is MES SA (uterine sarcoma cells). The experiment in a line: Cytotoxic assay (CellTiter-Glo, 72 h), MES SA. The settings on record: Homo sapiens, MES-SA, read-out: IC50 MES SA. (ATP-based viability assays read luminescence as a measure of living cells.)
Test [3] deals with MES SA DX (multidrug resistant uterine sarcoma cells). The experiment in a line: Cytotoxic assay (CellTiter-Glo, 72 h), MES SA DX. Conditions: Homo sapiens.

On to `COC(=O)[C@@H](C)C[C@H](Cc1ccccc1)NC(=O)c1cccc([C@@H](C[C@H](C(C)C)N(C)C(=O)[C@@H](NC(=O)[C@H]2CCCCN2C)C2CC2)OC(C)=O)n1` [Tb36, Methyl (2S,4R)-4-(6-((1R,3R)-1-acetoxy-3-((S)-2-cyclopropyl-N-methyl-2-((R)-1-methylpiperidine-2-carboxamido)acetamido)-4-methylpentyl)picolinamido)-2-methyl-5-phenylpentanoate], for which the 50% inhibitory concentration (IC50) in test [1] (72 h) is 0.631 nM; in test [1], 0.631 nM; in test [2] (72 h) it was 0.308 nM; in test [2], 0.308 nM; in test [3], above 1000 nM.

Turning to `CC[C@H](C)[C@H](NC(=O)[C@H]1CCCCN1C)C(=O)N(C)[C@H](CCc1nc(C(=O)N[C@@H](Cc2ccccc2)C[C@H](C)C(=O)OC)cs1)C(C)C` [PTb-D42, Methyl(2S,4R)-4-(2-((R)-3-((2S,3S)—N,3-dimethyl-2-((R)-1-methylpiperidine-2-carboxamido)pentanamido)-4-methylpentyl)thiazole-4-carboxamido)-2-methyl-5-phenylpentanoate], the IC50 in test [1] (72 h), in test [2] (72 h) and in test [3] was above 1000 nM throughout.

On to `COC(=O)[C@@H](C)C[C@H](Cc1ccccc1)NC(=O)c1csc([C@@H](C[C@H](C(C)C)N(C)C(=O)[C@@H](NC(=O)[C@H]2CCCCN2C)C2CCCCC2)OC(C)=O)n1` [Tb33, (2S,4R)-Methyl 4-(2-((1R,3R)-1-acetoxy-3-((S)-2-cyclohexyl-N-methyl-2-((R)-1-methylpiperidine-2-carboxamido)acetamido)-4-methylpentyl)thiazole-4-carboxamido)-2-methyl-5-phenylpentanoate], for which the half-maximal inhibitory concentration (IC50) in test [1] (72 h) came to 0.048 nM; in test [1], 0.048 nM; in test [2] (72 h) it was 0.066 nM; in test [2], 0.066 nM; in test [3], 101 nM.

Consider `CC[C@H](C)[C@H](NC(=O)[C@H]1CCCCN1C)C(=O)N(C)[C@H](C[C@@H](OC(C)=O)c1cccc(C(=O)N[C@@H](Cc2ccccc2)C[C@H](C)C(=O)O)n1)C(C)C` [Tb39, (2S,4R)-4-(6-((1R,3R)-1-acetoxy-3-((2S,3S)—N,3-dimethyl-2-((R)-1-methylpiperidine-2 carboxamido)pentanamido)-4-methylpentyl)picolinamido)-2-methyl-5-phenylpentanoic Acid], for which the IC50 in test [1] (72 h) is 0.194 nM; in test [1], 0.194 nM; in test [2] (72 h), 0.891 nM; in test [2], 0.891 nM; in test [3], below 500 nM.

For `CC(=O)O[C@H](C[C@H](C(C)C)N(C)C(=O)[C@@H](NC(=O)[C@H]1CCCCN1C)C1CC1)c1cccc(C(=O)N[C@@H](Cc2ccccc2)C[C@H](C)C(=O)O)n1` [Tb37, (2S,4R)-4-(6-((1R,3R)-1-Acetoxy-3-((S)-2-cyclopropyl-N-methyl-2-((R)-1-methylpiperidine-2-carbox-amido)acetamido)-4-methylpentyl)picolinamido)-2-methyl-5-phenylpentanoic Acid], the IC50 in test [1] (72 h) was 3.52 nM; in test [2] (72 h) it was 14.4 nM; in test [3], above 1000 nM.

`CC[C@H](C)[C@H](NC(=O)[C@H]1CCCCN1C)C(=O)N(C)[C@H](CCc1nc(C(=O)N[C@@H](Cc2ccccc2)C[C@H](C)C(=O)O)cs1)C(C)C` [PTb-D43, pretubulysin D, reference compound]: the IC50 in test [1] (72 h) is 109 nM; in test [2] (72 h) it was 409 nM; in test [3], above 1000 nM.

Take `COC(=O)[C@@H](C)C[C@H](Cc1ccccc1)NC(=O)c1csc([C@@H](C[C@H](C(C)C)N(C)C(=O)C2(NC(=O)[C@H]3CCCCN3C)CCC2)OC(C)=O)n1` [Tb28, (2S,4R)-Methyl 4-(2-((1R,3R)-1-acetoxy-4-methyl-3-(N-methyl-1-((R)-1-methylpiperidine-2-carboxamido)cyclobutanecarboxamido)pentyl)thiazole-4-carboxamido)-2-methyl-5-phenylpentanoate]: the IC50 amounted to 0.69 nM in test [1] (72 h), 1.13 nM in test [2] (72 h) and 81.7 nM in test [3].
